pIC50: −log10 of the molar value.
Tested on: 252836-082-R-J2-PDC tumor spheroids, viability
Assay: Anticancer human tumor 252836-082-R-J2-PDC patient-derived head and neck squamous cell carcinoma cell line growth inhibition [PI3K]
Settings: spheroids with HUVEC and MSC; for pIC50: curve of first compound; for viability, T/C: stronger effect = lower value; active = viability on the fitted dose curve at most 10% of control; inactive = the rest
In short: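 Tumor cells grown as multi-cell spheroids with HUVEC endothelial cells and MSC fibroblast-like stroma were treated with targeted agents combined with inavolisib, alpelisib, duvelisib or copanlisib. Doses fell in half-log steps from near clinical Cmax, else from 10 microM. Viability was measured.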
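Note: spheroids exposed to agents for seven days before readout.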
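Throughout, for viability, T/C: percent of vehicle DMSO control viability so 100% = untreated growth.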

CC(C)n1nc(-c2ccc3oc(N)nc3c2)c2c(N)ncnc21 + CC(Nc1ncnc2nc[nH]c12)c1cc2cccc(Cl)c2c(=O)n1-c1ccccc1
7.67: pIC50 (second compound 3.16 µM)
7.43: pIC50 (second compound 0.1 µM)
7.47: pIC50 (second compound 0.316 µM)
7.32: pIC50 (second compound 0.0316 µM)
inactive: viability, T/C (second compound 0.0316 µM, first compound 0.000316 µM) 91.7% | viability, T/C (second compound 0.0316 µM, first compound 0.001 µM) 93.5% | viability, T/C (second compound 0.0316 µM, first compound 0.00316 µM) 89.5% | viability, T/C (second compound 0.0316 µM, first compound 0.01 µM) 95.5% | viability, T/C (second compound 0.0316 µM, first compound 0.0316 µM) 65.6% | viability, T/C (second compound 0.0316 µM, first compound 0.1 µM) 21.7% | viability, T/C (second compound 0.1 µM, first compound 0.000316 µM) 94.1% | viability, T/C (second compound 0.1 µM, first compound 0.001 µM) 97.9% | viability, T/C (second compound 0.1 µM, first compound 0.00316 µM) 71.1% | viability, T/C (second compound 0.1 µM, first compound 0.01 µM) 77.5% | viability, T/C (second compound 0.1 µM, first compound 0.0316 µM) 55.1% | viability, T/C (second compound 0.1 µM, first compound 0.1 µM) 24.2% | viability, T/C (second compound 0.316 µM, first compound 0.000316 µM) 95.3% | viability, T/C (second compound 0.316 µM, first compound 0.001 µM) 79% | viability, T/C (second compound 0.316 µM, first compound 0.00316 µM) 83.5% | viability, T/C (second compound 0.316 µM, first compound 0.01 µM) 87.4% | viability, T/C (second compound 0.316 µM, first compound 0.0316 µM) 52% | viability, T/C (second compound 0.316 µM, first compound 0.1 µM) 22.4% | viability, T/C (second compound 1 µM, first compound 0.000316 µM) 96% | viability, T/C (second compound 1 µM, first compound 0.001 µM) 88.6% | viability, T/C (second compound 1 µM, first compound 0.00316 µM) 83.5% | viability, T/C (second compound 1 µM, first compound 0.01 µM) 69.8% | viability, T/C (second compound 1 µM, first compound 0.0316 µM) 50.8% | viability, T/C (second compound 1 µM, first compound 0.1 µM) 22.7% | viability, T/C (second compound 3.16 µM, first compound 0.000316 µM) 79.2% | viability, T/C (second compound 3.16 µM, first compound 0.001 µM) 76.9% | viability, T/C (second compound 3.16 µM, first compound 0.00316 µM) 78.5% | viability, T/C (second compound 3.16 µM, first compound 0.01 µM) 64.2% | viability, T/C (second compound 3.16 µM, first compound 0.0316 µM) 42.8% | viability, T/C (second compound 3.16 µM, first compound 0.1 µM) 22% | viability, T/C (second compound 10 µM, first compound 0.000316 µM) 74.1% | viability, T/C (second compound 10 µM, first compound 0.001 µM) 60% | viability, T/C (second compound 10 µM, first compound 0.00316 µM) 68.1% | viability, T/C (second compound 10 µM, first compound 0.01 µM) 47% | viability, T/C (second compound 10 µM, first compound 0.0316 µM) 39.4% | viability, T/C (second compound 10 µM, first compound 0.1 µM) 18%
7.95: pIC50 (second compound 10 µM)
7.49: pIC50 (second compound 1 µM)
